Laboratory results taken from patent US20260209242A1, “CAMPTOTHECIN DERIVATIVE, PHARMACEUTICAL COMPOSITION, AND PREPARATION METHOD AND USE THEREFOR” (priority 2022, published 2026).
Where two headings read alike, the source gives them in different places.

Columns and labels:
Assay type in all cases: cell-based
MDA-MB-468 = assay: Inhibition of proliferation of cells MDA-MB-468 (CelltiterGlo, 72 h)
Method: (§1) • (1) Cell plating: first, tumor cells MDA-MB-468 were cultured using a corresponding culture medium, trypsinized, centrifuged, resuspended for counting, adjusted to an appropriate concentration, and then plated on a 384-well plate. • (2) Co-incubation of the compounds and tumor cells: after the cells adhered to the wall, 100 nL of a diluted bioactive substance (test compound) was added to the cell culture plate using ECHO, the final concentration of DMSO in wells of the cell plate was 0.33%, and the incubation was performed in an incubator at 37° C. with 0% CO2 for 72 h. • (3) After the incubation was complete, 30 μL of a CTG reagent (CelltiterGlo kit) was added to each well. The culture was oscillated on a fast oscillator for 2 min, centrifuged at 1,000 rpm for 1 min, and kept away from light at room temperature for 30 min. The chemiluminescence signal value was read using an Envision instrument. • (4) Cell viability detection: IC50 was calculated using GraphPad Prism 8 software, and the IC50 of the compounds was obtained using the following nonlinear fitting formula (see Table 2):
[formula] • Y: inhibition rate: X: log value of compound concentration;
(§2) [formula] • high-reading control wells: cells with addition of 100 nL DMSO; and • low-reading control wells: cell-free wells.

NCI-N87 = assay: Inhibition of proliferation of cells NCI-N87 (CelltiterGlo, 72 h)
Method: as §1, with “NCI-N87” for “MDA-MB-468”, “3):” for “2):”
[formula] • Y: inhibition rate, X: log value of compound concentration;
as §2

SK-BR-3 = assay: Inhibition of proliferation of cells SK-BR-3 (CelltiterGlo, 72 h)
Method: as §1, with “SK-BR-3” for “MDA-MB-468”, “5%” for “0%”, “1):” for “2):”
[formula] • Y: inhibition rate; X: log value of compound concentration-,
as §2

[1] = Homo sapiens, MDA-MB-468, 72 h, read-out: IC50 (nM), antiproliferative activity on MDA-MB-468, MDA-MB-468 cells, 72 h, CTG
[2] = Homo sapiens, NCI-N87, 72 h, read-out: IC50 (nM), antiproliferative activity on cells NCI-N87, NCI-N87 cells, 72 h, CTG
[3] = Homo sapiens, SK-BR-3, 72 h, read-out: IC50 (nM), antiproliferative activity on SK-BR-3, SK-BR-3 cells, 72 h, CTG
[4] = MDA-MB-468 cells, 72 h, CTG, read-out: IC50 (nM), antiproliferative activity on MDA-MB-468
[5] = NCI-N87 cells, 72 h, CTG, read-out: IC50 (nM), antiproliferative activity on cells NCI-N87

`CC[C@@]1(O)C(=O)OCc2c1cc1n(c2=O)Cc2c-1nc1cc(F)c(C)c3c1c2[C@@H](NC(=O)[C@H]1C[C@@H](O)C1)CCC3` [Compound 10, (1S,3R)—N-((1S,10S)-10-ethyl-6-fluoro-10-hydroxy-5-methyl-11,14-dioxo-1,2,3,4,10,11,14,16-octahydro-13H-cyclohepta[de]pyrano[3′,4′:6,7]indolizino[1,2-b]quinolin-1-yl)-3-hydroxycyclobutane-1-carboxamide] gave an IC50 (MDA-MB-468; [1]) of 13 nM, an IC50 (NCI-N87; [2]) of 23 nM and an IC50 (SK-BR-3; [3]) of 10 nM.
`CC[C@@]1(O)C(=O)OCc2c1cc1n(c2=O)Cc2c-1nc1cc(F)c(C)c3c1c2[C@@H](NC(=O)[C@H](O)C1CC1)CCC3` [Compound 11-1, (R)-2-cyclopropyl-N-((1S,10S)-10-ethyl-6-fluoro-10-hydroxy-5-methyl-11,14-dioxo-1,2,3,4,10,11,14,16-octahydro-13H-cyclohepta[de]pyrano[3′,4′:6,7]indolizino[1,2-b]quinolin-1-yl)-2-hydroxyacetamide] was tested, and the IC50 (MDA-MB-468; Homo sapiens, MDA-MB-468 cells, 72 h, CTG, read-out: IC50 (nM), antiproliferative activity on MDA-MB-468) was 3.9 nM, the IC50 (NCI-N87; Homo sapiens, NCI-N87 cells, 72 h, CTG, read-out: IC50 (nM), antiproliferative activity on cells NCI-N87) was 2.5 nM and the IC50 (SK-BR-3; Homo sapiens, SK-BR-3 cells, 72 h, CTG, read-out: IC50 (nM), antiproliferative activity on SK-BR-3) was 2.2 nM.
Work on `C=Cc1c(F)cc2nc3c(c4c2c1CC[C@@H]4NC(=O)[C@H]1C[C@@H](O)C1)Cn1c-3cc2c(c1=O)COC(=O)[C@]2(O)CC` [Compound 12, (1S,3R)—N-((1S,9S)-9-ethyl-5-fluoro-9-hydroxy-10,13-dioxo-4-ethenyl-2,3,9,10,13,15-hexahydro-1H,12H-benzo[d]pyrano[3′,4′:6,7]indolizino[1,2-b]quinolin-1-yl)-3-hydroxycyclobutane-1-carboxamide] yielded an IC50 (MDA-MB-468; [1]) of 9.3 nM, an IC50 (NCI-N87; [2]) of 20 nM and an IC50 (SK-BR-3; [3]) of 5.7 nM.
Molecule `CC[C@@]1(O)C(=O)OCc2c1cc1n(c2=O)Cc2c-1nc1cc(F)c(C3CC3)c3c1c2C(NC(=O)[C@H]1C[C@@H](O)C1)CC3` (stereo partly drawn) [Compound 18-1, (1S,3S)—N-((1R,9S)-4-cyclopropyl-9-ethyl-5-fluoro-9-hydroxy-10,13-dioxo-2,3,9,10,13,15-hexahydro-1H,12H-benzo[d]pyrano[3′,4′:6,7]indolizino[1,2-b]quinolin-1-yl)-3-hydroxycyclobutane-1-carboxamide] has an IC50 (NCI-N87; [2]) of 11.2 nM and an IC50 (SK-BR-3; [3]) of 13.8 nM.
For `CC[C@@]1(O)C(=O)OCc2c1cc1n(c2=O)Cc2c-1nc1cc(F)c(C3CC3)c3c1c2[C@@H](NC(=O)[C@H](O)C1CC1)CCC3` [Compound 33-1, (R)-2-cyclopropyl-N-((1S,10S)-5-cyclopropyl-10-ethyl-6-fluoro-10-hydroxy-11,14-dioxo-1,2,3,4,10,11,14,16-octahydro-13H-cyclohepta[3′,4′:6,7]indolizino[1,2-b]quinolin-1-yl)-2-hydroxyacetamide], the IC50 (MDA-MB-468; [4]) was 6 nM and the IC50 (NCI-N87; [5]) was 8 nM.
`CC[C@@]1(O)C(=O)OCc2c1cc1n(c2=O)Cc2c-1nc1cc(F)c(C3CC3)c3c1c2[C@@H](NC(=O)[C@@H](O)C1CC1)CCC3` [Compound 33-2, (S)-2-cyclopropyl-N-((1S,10S)-5-cyclopropyl-10-ethyl-6-fluoro-10-hydroxy-11,14-dioxo-1,2,3,4,10,11,14,16-octahydro-13H-cyclohepta[3′,4′:6,7]indolizino[1,2-b]quinolin-1-yl)-2-hydroxyacetamide] gave an IC50 (MDA-MB-468; [4]) of 5 nM and an IC50 (NCI-N87; [5]) of 9 nM.
`CC[C@@]1(O)C(=O)OCc2c1cc1n(c2=O)Cc2c-1nc1cc(F)c(C3CC3)c3c1c2[C@@H](NC(=O)C[C@H](O)C1CC1)CC3` [Compound 34-1, (S)-3-cyclopropyl-N-((1S,9S)-4-cyclopropyl-9-ethyl-5-fluoro-9-hydroxy-10,13-dioxo-2,3,9,10,13,15-hexahydro-1H,12H-benzo[d]pyrano[3′,4′:6,7]indolizino[1,2-b]quinolin-1-yl)-3-hydroxypropanamide] showed an IC50 (MDA-MB-468; [4]) of 4 nM and an IC50 (NCI-N87; [5]) of 6 nM.
For `CC[C@@]1(O)C(=O)OCc2c1cc1n(c2=O)Cc2c-1nc1cc(F)c(C3CC3)c3c1c2[C@@H](NC(=O)C[C@@H](O)C1CC1)CC3` [Compound 34-2, (R)-3-cyclopropyl-N-((1S,9S)-4-cyclopropyl-9-ethyl-5-fluoro-9-hydroxy-10,13-dioxo-2,3,9,10,13,15-hexahydro-1H,12H-benzo[d]pyrano[3′,4′:6,7]indolizino[1,2-b]quinolin-1-yl)-3-hydroxypropanamide], the IC50 (MDA-MB-468; [1]) was 4 nM, the IC50 (NCI-N87; [2]) was 6 nM and the IC50 (SK-BR-3; [3]) was 4.8 nM.
For `CC[C@@]1(O)C(=O)OCc2c1cc1n(c2=O)Cc2c-1nc1cc(F)c(C)c3c1c2[C@@H](NC(=O)[C@@H](C)[C@@H](C)O)CCC3` [Compound 39, (2S,3R)—N-((1S,10S)-10-ethyl-6-fluoro-10-hydroxy-5-methyl-11,14-dioxo-1,2,3,4,10,11,14,16-octahydro-13H-cyclohepta[3′,4′:6,7]indolizino[1,2-b]quinolin-1-yl)-3-hydroxy-2-methylbutanamide], the IC50 (MDA-MB-468; [1]) was 15 nM, the IC50 (NCI-N87; [2]) was 9.3 nM and the IC50 (SK-BR-3; [3]) was 11 nM.
With “(1S,3S)—N-((1R,10S)-5-cyclopropyl-10-ethyl-6-fluoro-10-hydroxy-11,14-dioxo-1,2,3,4,10,11,14,16-octahydro-13H-cyclohepta[de]pyrano[3′,4′:6,7]indolizino[1,2-b]quinolin-1-yl)-3-hydroxybutane-1-carboxamide [Compound 20-1]” the IC50 (MDA-MB-468; [4]) was 15.6 nM, the IC50 (NCI-N87; [5]) was 26 nM and the IC50 (SK-BR-3; SK-BR-3 cells, 72 h, CTG, read-out: IC50 (nM), antiproliferative activity on SK-BR-3) was 21 nM.
Molecule “(S)—N-((1S,10S)-10-ethyl-6-fluoro-10-hydroxy-5-methyl-11,14-dioxo-1,2,3,4,10,11,14,16-octahydro-13H-cyclohepta[3′,4′:6,7]indolizino[1,2-b]quinolin-1-yl)-3-hydroxy-4-methylpentanamide [Compound 37-1]” has an IC50 (MDA-MB-468; [4]) of 19 nM.
